From BindingDB's records for doi:10.1016/j.ejmech.2013.06.030 (National Institute On Drug Abuse and The National Institute …, 2013) come the findings set out here.

For the assay, the target named is Delta-type opioid receptor (Homo sapiens, UniProt P41143). Put plainly: Displacement of [3H]DADLE from human delta opioid receptor expressed in CHO cells after 2 hrs by liquid scintillation counting. (Displacement assays read how much labelled ligand stays bound in the presence of the test substance.)
Chain of Delta-type opioid receptor (P41143 whole entry): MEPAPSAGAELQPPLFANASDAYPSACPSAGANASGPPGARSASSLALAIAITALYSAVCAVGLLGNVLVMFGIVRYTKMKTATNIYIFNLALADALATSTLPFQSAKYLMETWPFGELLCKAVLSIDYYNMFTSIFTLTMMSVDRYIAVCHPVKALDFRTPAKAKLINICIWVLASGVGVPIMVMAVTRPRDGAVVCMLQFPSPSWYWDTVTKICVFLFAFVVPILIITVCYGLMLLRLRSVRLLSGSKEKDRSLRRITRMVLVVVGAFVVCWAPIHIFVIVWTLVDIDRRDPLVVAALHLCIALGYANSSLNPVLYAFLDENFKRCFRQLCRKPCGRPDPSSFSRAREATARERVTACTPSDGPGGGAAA
Take `C[C@H]1C[C@H]2C[C@](c3cccc(O)c3)(CCN2C)C1`: the affinity, expressed as Ki, was 721 nM.
Take `CN1CC[C@]2(c3cccc(O)c3)C[C@@H](c3ccccc3)C[C@H]1C2`: the Ki (usually the equilibrium dissociation constant of an inhibitor or competing ligand from its target) was 583 nM.
Next, `C[C@H]1CC[C@@]2(c3cccc(O)c3)CCN(C)[C@@H]1C2`: 139 nM; `Oc1cccc([C@@]23CCN(CCc4ccccc4)[C@H](C[C@@H](O)C2)C3)c1`: 876 nM; `C[C@H]1CC[C@@]2(c3cccc(O)c3)CCN(CCc3ccccc3)[C@@H]1C2`: 126 nM.
In turn, `Oc1cccc([C@]23CCN(CCc4ccccc4)[C@H](C2)[C@H]2CCCC[C@@H]2C3)c1` gave a Ki of 103 nM.
Next, `Oc1cccc([C@@]23CCN(CCc4ccccc4)[C@@H](C[C@H](c4ccccc4)C2)C3)c1`: 318 nM; `C[C@H]1C[C@H]2C[C@](c3cccc(O)c3)(CCN2CCc2ccccc2)C1`: 260 nM.
